Assay [1] concerns the target T1, MTHFD1 recombinant human enzyme (Homo sapiens, UniProt P11586).
T1 sequence (P11586 2-291 limits assumed): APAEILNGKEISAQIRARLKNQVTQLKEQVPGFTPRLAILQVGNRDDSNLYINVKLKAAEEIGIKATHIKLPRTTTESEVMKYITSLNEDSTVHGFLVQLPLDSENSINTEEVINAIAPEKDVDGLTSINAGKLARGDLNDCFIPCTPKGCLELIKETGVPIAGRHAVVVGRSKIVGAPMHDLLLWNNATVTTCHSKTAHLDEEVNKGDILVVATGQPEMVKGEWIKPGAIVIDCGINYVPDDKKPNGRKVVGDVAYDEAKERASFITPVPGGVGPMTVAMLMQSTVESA
Briefly: MTHFD1 inhibition assay (NAD(P)H-Glo luminescence). The note with it: MTHFD1 IC50, recombinant human enzyme 200 nM, NADP, band.

The target in assay [2] is T2, MTHFD2 recombinant human enzyme (Homo sapiens, UniProt P13995).
T2 sequence (P13995 36-350): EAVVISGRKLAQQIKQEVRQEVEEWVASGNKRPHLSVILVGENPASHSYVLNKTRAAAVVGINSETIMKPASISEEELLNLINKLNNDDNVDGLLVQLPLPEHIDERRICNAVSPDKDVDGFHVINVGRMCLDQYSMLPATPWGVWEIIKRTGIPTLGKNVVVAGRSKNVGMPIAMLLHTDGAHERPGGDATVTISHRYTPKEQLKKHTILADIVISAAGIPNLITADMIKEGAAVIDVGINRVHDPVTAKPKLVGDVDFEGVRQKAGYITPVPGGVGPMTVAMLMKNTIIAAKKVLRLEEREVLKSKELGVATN
Put plainly: MTHFD2 inhibition assay (NAD(P)H-Glo luminescence). The note with it: for MTHFD1/MTHFD2 IC50 ratio: selectivity of MTHFD2 inhibition over MTHFD1, band.

The text below walks through data of patent US12662489B2 (Sitryx Therapeutics Limited, priority 2023, dated 2026).

Some results are limits rather than exact numbers.

Consider `COC[C@H]1CN(c2ccc3c4c(c(=O)oc3c2Cl)CN(C(=O)c2ccc(C(=O)NS(=O)(=O)N(C)C(C)C)c(OC3CCC3)c2F)CC4)CCN1C` [Example 30, (R)-4-(7-chloro-8-(3-(methoxymethyl)-4-methylpiperazin-1-yl)-5-oxo-1,3,4,5-tetrahydro-2H-chromeno[3,4-c]pyridine-3-carbonyl)-2-cyclobutoxy-3-fluoro-N-(N-isopropyl-N-methylsulfamoyl)benzamide], for which the half-maximal inhibitory concentration (IC50) in assay [1] lay in the range of 10 to 100 nM. Moreover, in assay [2], the concentration for half-maximal inhibition (IC50) is 10 to 100 nM and the “MTHFD1/MTHFD2 IC50 ratio” value was “F (<3)”.
Turning to `COC[C@H]1CN(c2cc(C)c3c4c(c(=O)oc3c2C)CN(C(=O)c2cc(OC3CCC3)c(C(=O)NS(=O)(=O)N(C)C)cc2F)CC4)CCN1C` [Example 93, (R)-2-cyclobutoxy-N-(N,N-dimethylsulfamoyl)-5-fluoro-4-(8-(3-(methoxymethyl)-4-methylpiperazin-1-yl)-7,10-dimethyl-5-oxo-1,3,4,5-tetrahydro-2H-chromeno[3,4-c]pyridine-3-carbonyl)benzamide], in assay [1], the 50% inhibitory concentration (IC50) fell in the range of 10 to 100 nM. Moreover, in assay [2], the IC50 is 10 to 100 nM and the “MTHFD1/MTHFD2 IC50 ratio” value is listed as “G (^ 3 to 9.0)”.
`COC[C@H]1CN(c2ccc3c4c(c(=O)oc3c2C)CN(C(=O)c2ccc(C(=O)NS(=O)(=O)N3CCCC3)c(OC3C[C@@H]5C[C@@H]5C3)c2)CC4)CCN1C` (mixture of isomers) [Example 114, 2-(bicyclo[3.1.0]hexan-3-yloxy)-4-(8-((R)-3-(methoxymethyl)-4-methylpiperazin-1-yl)-7-methyl-5-oxo-1,3,4,5-tetrahydro-2H-chromeno[3,4-c]pyridine-3-carbonyl)-N-(pyrrolidin-1-ylsulfonyl)benzamide]: the half-inhibitory concentration (IC50) in assay [1] is 10 to 100 nM. In assay [2], the IC50 lay within 100 to 1000 nM and the “MTHFD1/MTHFD2 IC50 ratio” value is reported as “F (<3)”.
The corresponding values for `COC[C@H]1CN(c2cc(C)c3c4c(c(=O)oc3c2C)CN(C(=O)c2ccc(C(=O)NS(=O)(=O)N3C5CCC3CC5)cc2Cl)CC4)CCN1C` [Example 185, (R)-N-((7-azabicyclo[2.2.1]heptan-7-yl)sulfonyl)-3-chloro-4-(8-(3-(methoxymethyl)-4-methylpiperazin-1-yl)-7,10-dimethyl-5-oxo-1,3,4,5-tetrahydro-2H-chromeno[3,4-c]pyridine-3-carbonyl)benzamide] are more than 5000 nM, 100 to 1000 nM and “H (>9.0 to 30)”.
For `COC[C@H]1CN(c2cc(C)c3c4c(c(=O)oc3c2C)CN(C(=O)c2ccc(C(=O)NS(=O)(=O)N3C5CCC3CC5)c(OC3CC3)c2F)CC4)CCN1C` [Example 213, (R)-N-((7-azabicyclo[2.2.1]heptan-7-yl)sulfonyl)-2-cyclopropoxy-3-fluoro-4-(8-(3-(methoxymethyl)-4-methylpiperazin-1-yl)-7,10-dimethyl-5-oxo-1,3,4,5-tetrahydro-2H-chromeno[3,4-c]pyridine-3-carbonyl)benzamide], in that order: 10 to 100 nM, 1 to 10 nM and “G (^ 3 to 9.0)”.
For `CCOc1c(C(=O)NS(=O)(=O)N2CC3CCC2C3)ccc(C(=O)N2CCc3c(c(=O)oc4c(C)c(N5CCN(C)[C@@H](COC)C5)ccc34)C2)c1F` (stereo partly drawn) [Example 230], in that order: 100 to 1000 nM, 10 to 100 nM and “F (<3)”.
As to `COC[C@H]1CN(c2cc(C)c3c4c(c(=O)oc3c2C)CN(C(=O)c2ccc(C(=O)NS(=O)(=O)N3C5CCC3COC5)c(OC)c2F)CC4)CCN1C` [Example 158, N-((3-oxa-8-azabicyclo[3.2.1]octan-8-yl)sulfonyl)-3-fluoro-2-methoxy-4-(8-((R)-3-(methoxymethyl)-4-methylpiperazin-1-yl)-7,10-dimethyl-5-oxo-1,3,4,5-tetrahydro-2H-chromeno[3,4-c]pyridine-3-carbonyl)benzamide], the IC50 in assay [1] was in the range of 100 to 1000 nM. In assay [2], the IC50 was 10 to 100 nM and the “MTHFD1/MTHFD2 IC50 ratio” value was “H (>9.0 to 30)”.
For `COC[C@H]1CN(c2cc(C)c3c4c(c(=O)oc3c2C)CN(C(=O)c2ccc(C(=O)NS(=O)(=O)N3CCCC3)c(O[C@H]3C[C@@H]5C[C@@H]5C3)c2F)CC4)CCN1C` [Example 66, 2-(((1R,3s,5S)-bicyclo[3.1.0]hexan-3-yl)oxy)-3-fluoro-4-(8-((R)-3-(methoxymethyl)-4-methylpiperazin-1-yl)-7,10-dimethyl-5-oxo-1,3,4,5-tetrahydro-2H-chromeno[3,4-c]pyridine-3-carbonyl)-N-(pyrrolidin-1-ylsulfonyl)benzamide], in that order: 1 to 10 nM, 1 to 10 nM and “F (<3)”.
For `CCOc1cc(C(=O)N2CCc3c(c(=O)oc4c(C)c(N5CCN(C)[C@@H](COC)C5)cc(Cl)c34)C2)c(F)cc1C(=O)NS(=O)(=O)C1(C)CC1` [Example 299, (R)-4-(10-chloro-8-(3-(methoxymethyl)-4-methylpiperazin-1-yl)-7-methyl-5-oxo-1,3,4,5-tetrahydro-2H-chromeno[3,4-c]pyridine-3-carbonyl)-2-ethoxy-5-fluoro-N-((1-methylcyclopropyl)sulfonyl)benzamide], in that order: 100 to 1000 nM, 10 to 100 nM and “H (>9.0 to 30)”.
Take `CCOc1c(C(=O)NS(=O)(=O)N2C3CCCC2CC3)ccc(C(=O)N2CCc3c(c(=O)oc4c(C)c(N5CCN(C)[C@@H](COC)C5)ccc34)C2)c1F` [Example 236]: the half-maximal inhibitory concentration (IC50) in assay [1] is 10 to 100 nM. In addition, in assay [2], the half-inhibitory concentration (IC50) lay in the range of 10 to 100 nM and the “MTHFD1/MTHFD2 IC50 ratio” value is listed as “F (<3)”.
`COC[C@H]1CN(c2ccc3c4c(c(=O)oc3c2C)CN(C(=O)c2cc(Cl)c(C(=O)NS(=O)(=O)N(C)C)c(N3CC5CC5C3)c2)CC4)CCN1C` (stereo partly drawn) [Example 33, 2-(3-azabicyclo[3.1.0]hexan-3-yl)-6-chloro-N-(N,N-dimethylsulfamoyl)-4-(8-((R)-3-(methoxymethyl)-4-methylpiperazin-1-yl)-7-methyl-5-oxo-1,3,4,5-tetrahydro-2H-chromeno[3,4-c]pyridine-3-carbonyl)benzamide]: the half-maximal inhibitory concentration (IC50) in assay [1] was 100 to 1000 nM. In assay [2], the IC50 is 10 to 100 nM and the “MTHFD1/MTHFD2 IC50 ratio” value is reported as “H (>9.0 to 30)”.
For `COC[C@H]1CN(c2cc(C)c3c4c(c(=O)oc3c2C)CN(C(=O)c2ccc(C(=O)NS(=O)(=O)N(C)C)c(OC3CCC3)c2F)CC4)CCN1C` [Example 51, (R)-2-cyclobutoxy-N-(N,N-dimethylsulfamoyl)-3-fluoro-4-(8-(3-(methoxymethyl)-4-methylpiperazin-1-yl)-7,10-dimethyl-5-oxo-1,3,4,5-tetrahydro-2H-chromeno[3,4-c]pyridine-3-carbonyl)benzamide], in that order: 1 to 10 nM, 1 to 10 nM and “F (<3)”.
`COC[C@H]1CN(c2cc(C)c3c4c(c(=O)oc3c2C)CN(C(=O)c2ccc(C(=O)NS(=O)(=O)N3CCCC3)c(N3CCC[C@H]3C)c2)CC4)CCN1C` [Example 124, 4-(8-((R)-3-(methoxymethyl)-4-methylpiperazin-1-yl)-7,10-dimethyl-5-oxo-1,3,4,5-tetrahydro-2H-chromeno[3,4-c]pyridine-3-carbonyl)-2-((R)-2-methylpyrrolidin-1-yl)-N-(pyrrolidin-1-ylsulfonyl)benzamide]: the IC50 in assay [1] is 100 to 1000 nM. In assay [2], the half-inhibitory concentration (IC50) lay within 100 to 1000 nM and the “MTHFD1/MTHFD2 IC50 ratio” value is recorded as “F (<3)”.

Usually IC50 stands for the concentration that gives 50% inhibition.
